This is an account of results in ChEMBL document CHEMBL5150077, “Identification of TUL01101: A Novel Potent and Selective JAK1 Inhibitor for the Treatment of Rheumatoid Arthritis” (J Med Chem, 2022).

A short description of series [1]: Plasma protein binding in rat assessed as unbound fraction at 2 uM incubated for 4 hrs by LC/MS/MS based balanced dialysis method.
Series [2] can be described thus: Microsomal stability in rat liver microsomes assessed as intrinsic clearance at 1 uM incubated for 60 mins in presence of NADPH regenerating system by LC-MS/MS analysis. Type of series: ADME, Microsome. As to conditions: read-out: CLH.
The nature of series [3]: Microsomal stability in human liver microsomes assessed as intrinsic clearance at 1 uM incubated for 60 mins in presence of NADPH regenerating system by LC-MS/MS analysis. The format is ADME, Microsome. Particulars: read-out: CLH. On the technique in general: Liver microsomes are vesicles of endoplasmic reticulum, rich in cytochrome P450 enzymes.
A short description of series [4]: Metabolic stability in human hepatocytes assessed as intrinsic clearance at 1 uM incubated for 90 mins by LC/MS/MS analysis. The format is ADME, cell-based, Hepatocyte.
The nature of series [5]: Clearance in C57BL/6 mouse at 2 mg/kg, iv measured for 24 hrs by LC/MS/MS analysis. Particulars: in vivo. Type of series: ADME, organism-based.
Series [6] has as its target Tyrosine-protein kinase JAK1 (Homo sapiens, UniProt P23458). Kind of series: Inhibition of recombinant human JAK1 using MGEEPLYWSFPAKKK as substrate incubated for 40 mins in presence of Mg/ATP mixture by [gamma p33]-ATP based scintillation counting method.
The target of series [7] is T1, Tyrosine-protein kinase JAK3 (Homo sapiens, UniProt P52333).
T1 sequence (P52333 whole entry): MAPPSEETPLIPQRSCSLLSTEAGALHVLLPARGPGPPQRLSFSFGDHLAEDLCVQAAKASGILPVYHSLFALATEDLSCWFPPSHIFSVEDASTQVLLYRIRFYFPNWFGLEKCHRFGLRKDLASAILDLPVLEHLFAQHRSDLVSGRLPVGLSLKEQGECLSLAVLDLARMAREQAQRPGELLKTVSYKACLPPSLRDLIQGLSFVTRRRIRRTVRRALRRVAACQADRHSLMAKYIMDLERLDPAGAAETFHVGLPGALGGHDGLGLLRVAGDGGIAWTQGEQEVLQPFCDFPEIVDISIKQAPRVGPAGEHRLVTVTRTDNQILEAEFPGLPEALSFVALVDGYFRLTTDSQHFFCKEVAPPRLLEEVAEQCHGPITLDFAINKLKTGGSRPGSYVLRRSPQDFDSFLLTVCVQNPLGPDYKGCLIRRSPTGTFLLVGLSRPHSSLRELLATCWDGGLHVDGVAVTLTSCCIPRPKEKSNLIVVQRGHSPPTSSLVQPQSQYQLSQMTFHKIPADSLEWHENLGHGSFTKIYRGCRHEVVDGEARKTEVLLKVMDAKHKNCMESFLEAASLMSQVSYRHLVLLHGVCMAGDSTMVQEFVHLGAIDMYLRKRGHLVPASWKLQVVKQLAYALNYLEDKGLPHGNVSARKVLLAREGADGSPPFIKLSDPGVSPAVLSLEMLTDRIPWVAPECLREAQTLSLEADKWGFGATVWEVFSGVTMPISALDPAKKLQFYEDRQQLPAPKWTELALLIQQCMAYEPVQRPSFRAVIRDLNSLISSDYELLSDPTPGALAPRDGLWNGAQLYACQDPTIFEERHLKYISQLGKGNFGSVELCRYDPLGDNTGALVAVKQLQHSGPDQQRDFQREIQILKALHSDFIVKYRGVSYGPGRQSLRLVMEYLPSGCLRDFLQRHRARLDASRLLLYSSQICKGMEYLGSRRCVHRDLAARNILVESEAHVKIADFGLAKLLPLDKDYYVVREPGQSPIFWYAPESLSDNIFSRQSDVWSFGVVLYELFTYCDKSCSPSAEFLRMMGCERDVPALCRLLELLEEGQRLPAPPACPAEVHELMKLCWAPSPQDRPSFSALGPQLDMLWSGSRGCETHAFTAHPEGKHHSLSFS
Kind of series: Inhibition of recombinant human JAK3 using GGEEEEYFELVKKKK as substrate incubated for 40 mins in presence of Mg/ATP mixture by [gamma p33]-ATP based scintillation counting method.

Series [8] in a line: Apparent permeability across apical to basolateral side in human Caco-2 cells at 10 uM measured after 120 mins by LC-MS/MS analysis. Particulars: Caco-2.
A short description of series [9]: Efflux ratio of apparent permeability from basolateral to apical side over apical to basolateral side in human Caco-2 cells at 10 uM incubated for 120 mins by LC-MS/MS analysis. For orientation: Passage across Caco-2 layers is used to estimate intestinal permeability.
The next series deals with T2, Cytochrome P450 2C8 (Homo sapiens, UniProt P10632).
T2 sequence (P10632 whole entry): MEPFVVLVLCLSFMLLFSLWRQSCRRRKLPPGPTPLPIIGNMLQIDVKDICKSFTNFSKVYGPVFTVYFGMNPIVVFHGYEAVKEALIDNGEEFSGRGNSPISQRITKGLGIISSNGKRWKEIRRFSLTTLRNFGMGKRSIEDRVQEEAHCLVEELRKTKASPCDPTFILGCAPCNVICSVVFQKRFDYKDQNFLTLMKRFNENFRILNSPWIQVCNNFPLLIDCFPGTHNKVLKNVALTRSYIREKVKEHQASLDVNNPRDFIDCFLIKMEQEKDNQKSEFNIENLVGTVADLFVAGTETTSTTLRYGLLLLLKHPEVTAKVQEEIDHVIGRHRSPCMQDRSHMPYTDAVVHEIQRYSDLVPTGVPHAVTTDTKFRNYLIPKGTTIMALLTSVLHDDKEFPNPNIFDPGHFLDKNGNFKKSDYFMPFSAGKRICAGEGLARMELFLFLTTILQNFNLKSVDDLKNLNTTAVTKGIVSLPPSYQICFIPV
As to the kind of experiment: Inhibition of CYP2C8 in human liver microsomes incubated in presence NADPH by LC-MS/MS analysis.

Another series has as its target Cytochrome P450 2C19 (Homo sapiens, UniProt P33261). As to the kind of experiment: Inhibition of CYP2C19 in human liver microsomes incubated in presence NADPH by LC-MS/MS analysis.
The next series addresses Cytochrome P450 2D6 (Homo sapiens, UniProt P10635). Kind of series: Inhibition of CYP2D6 in human liver microsomes incubated in presence NADPH by LC-MS/MS analysis.
Another series addresses Cytochrome P450 3A4 (Homo sapiens, UniProt P08684). As to the kind of experiment: Inhibition of CYP3A4 in human liver microsomes incubated in presence NADPH by LC-MS/MS analysis.

Tyrosine-protein kinase JAK1, sequence (P23458 whole entry): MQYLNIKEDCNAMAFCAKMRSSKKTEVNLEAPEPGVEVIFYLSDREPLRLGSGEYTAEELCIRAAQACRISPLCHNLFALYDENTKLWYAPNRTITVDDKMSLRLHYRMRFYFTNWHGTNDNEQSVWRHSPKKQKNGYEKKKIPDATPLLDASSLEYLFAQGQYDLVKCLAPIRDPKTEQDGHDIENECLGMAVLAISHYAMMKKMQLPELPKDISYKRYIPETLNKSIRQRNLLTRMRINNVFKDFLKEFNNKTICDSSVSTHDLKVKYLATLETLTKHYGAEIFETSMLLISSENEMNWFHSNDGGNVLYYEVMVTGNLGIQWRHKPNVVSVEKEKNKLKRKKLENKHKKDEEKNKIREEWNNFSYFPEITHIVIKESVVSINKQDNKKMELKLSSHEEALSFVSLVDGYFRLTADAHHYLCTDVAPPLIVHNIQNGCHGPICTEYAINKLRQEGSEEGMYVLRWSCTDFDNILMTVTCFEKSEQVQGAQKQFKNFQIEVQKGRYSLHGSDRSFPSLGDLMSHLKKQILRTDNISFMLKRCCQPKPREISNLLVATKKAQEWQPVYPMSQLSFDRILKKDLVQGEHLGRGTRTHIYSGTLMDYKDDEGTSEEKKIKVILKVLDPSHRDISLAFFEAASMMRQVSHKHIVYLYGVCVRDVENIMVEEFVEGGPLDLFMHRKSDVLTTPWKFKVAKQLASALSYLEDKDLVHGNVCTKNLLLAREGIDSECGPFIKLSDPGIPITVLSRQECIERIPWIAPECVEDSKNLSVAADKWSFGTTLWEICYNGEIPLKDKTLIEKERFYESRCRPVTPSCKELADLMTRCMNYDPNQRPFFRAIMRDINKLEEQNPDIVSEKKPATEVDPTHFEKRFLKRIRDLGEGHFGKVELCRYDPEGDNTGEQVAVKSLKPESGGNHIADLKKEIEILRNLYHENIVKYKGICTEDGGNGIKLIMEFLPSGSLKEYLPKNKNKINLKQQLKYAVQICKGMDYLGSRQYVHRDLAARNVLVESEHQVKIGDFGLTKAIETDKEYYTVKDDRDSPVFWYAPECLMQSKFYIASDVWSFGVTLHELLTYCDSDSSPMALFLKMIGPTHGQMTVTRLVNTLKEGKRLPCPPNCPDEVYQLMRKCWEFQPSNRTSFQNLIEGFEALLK
Cytochrome P450 3A4, sequence (P08684 whole entry): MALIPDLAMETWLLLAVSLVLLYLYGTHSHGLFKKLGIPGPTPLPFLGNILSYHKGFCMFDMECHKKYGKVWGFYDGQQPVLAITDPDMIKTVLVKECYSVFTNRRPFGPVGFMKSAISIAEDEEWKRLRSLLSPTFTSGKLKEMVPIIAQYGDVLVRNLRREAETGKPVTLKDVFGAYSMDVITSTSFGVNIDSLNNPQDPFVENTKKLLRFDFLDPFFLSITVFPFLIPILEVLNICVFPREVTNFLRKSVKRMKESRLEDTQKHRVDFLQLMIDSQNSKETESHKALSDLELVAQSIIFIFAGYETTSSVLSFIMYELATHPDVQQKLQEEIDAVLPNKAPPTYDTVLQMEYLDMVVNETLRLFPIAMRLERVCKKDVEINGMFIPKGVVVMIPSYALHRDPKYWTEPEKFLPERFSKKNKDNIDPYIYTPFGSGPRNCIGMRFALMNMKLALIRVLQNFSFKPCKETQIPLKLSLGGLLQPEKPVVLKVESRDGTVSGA
Cytochrome P450 2D6, sequence (P10635 whole entry): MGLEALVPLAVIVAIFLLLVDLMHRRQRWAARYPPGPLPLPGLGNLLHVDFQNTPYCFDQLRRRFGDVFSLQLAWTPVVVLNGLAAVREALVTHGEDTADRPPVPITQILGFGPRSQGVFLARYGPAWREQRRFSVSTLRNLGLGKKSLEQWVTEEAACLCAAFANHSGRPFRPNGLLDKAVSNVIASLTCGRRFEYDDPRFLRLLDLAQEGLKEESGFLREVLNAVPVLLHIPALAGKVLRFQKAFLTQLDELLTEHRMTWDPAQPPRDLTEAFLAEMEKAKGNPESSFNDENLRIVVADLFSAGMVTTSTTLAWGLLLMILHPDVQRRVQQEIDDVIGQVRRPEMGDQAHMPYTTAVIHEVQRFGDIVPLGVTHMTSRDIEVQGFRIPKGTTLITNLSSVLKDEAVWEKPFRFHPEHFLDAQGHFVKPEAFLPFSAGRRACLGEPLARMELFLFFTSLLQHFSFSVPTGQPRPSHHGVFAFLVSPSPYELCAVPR
Cytochrome P450 2C19, sequence (P33261 whole entry): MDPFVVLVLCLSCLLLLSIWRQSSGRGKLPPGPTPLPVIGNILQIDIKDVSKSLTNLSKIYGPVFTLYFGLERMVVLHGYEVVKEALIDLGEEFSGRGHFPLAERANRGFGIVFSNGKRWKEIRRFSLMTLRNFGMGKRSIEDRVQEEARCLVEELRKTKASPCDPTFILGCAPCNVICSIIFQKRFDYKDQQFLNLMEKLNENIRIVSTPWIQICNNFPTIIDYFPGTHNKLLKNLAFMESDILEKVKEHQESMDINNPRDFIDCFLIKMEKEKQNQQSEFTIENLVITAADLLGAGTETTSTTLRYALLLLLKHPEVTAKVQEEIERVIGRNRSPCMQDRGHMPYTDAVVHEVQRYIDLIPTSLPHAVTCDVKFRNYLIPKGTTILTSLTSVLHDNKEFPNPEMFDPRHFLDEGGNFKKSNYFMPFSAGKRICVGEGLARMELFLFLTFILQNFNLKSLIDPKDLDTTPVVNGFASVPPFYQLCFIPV

For `O=C(Nc1nc2cccc(C3CCC4(CC3)CN(C(=O)[C@@H]3CC3(F)F)C4)n2n1)C1CC1`, the fraction unbound (commonly free concentration divided by total concentration) at 4 h, 2 µM in series [1] amounted to 0.26. Besides, the microsomal CLint at 1 µM in series [2] and in series [3] was < 9.6 µL/min/mg in each case. In addition, in series [4], the CLH is < 6.4 µL/min/mg. Besides, the clearance (usually the rate of elimination divided by the concentration) in series [5] is 22.1 mL/min/kg.

As to `O=C(Nc1nc2cccc(C3CCC4(CC3)CCN(C(=O)[C@@H]3CC3(F)F)CC4)n2n1)C1CC1`, the IC50 (as a rule, the midpoint of a concentration-inhibition curve) in [6] is 3 nM; in series [7] it was 1000 nM; at Cytochrome P450 2C8, > 100 µM; on Cytochrome P450 2C19 it was 4.93 µM; against Cytochrome P450 2D6 it was > 100 µM; against Cytochrome P450 3A4, > 100 µM. Moreover, the Papp A→B (as a rule, how fast a substance crosses the layer from the apical side) at 2 h, 10 µM in series [8] came to 4.29 ×10⁻⁶ cm/s. Further, the efflux ratio (in general, the permeability from basolateral to apical divided by that in the opposite direction, in the common usage) at 2 h, 10 µM in series [9] stood at 6.77. In series [1], the unbound share (fraction unbound) at 4 h, 2 µM was 0.067. Also, the microsomal CLint at 1 µM in series [2] and in series [3] was < 9.6 µL/min/mg throughout. Besides, the CLH in series [4] was < 6.4 µL/min/mg. In series [5], this molecule registered a clearance of 14.9 mL/min/kg.

Turning to `O=C(Nc1nc2cccc(C3CCC4(CC3)CCN(C(=O)[C@@H]3CC3(F)F)C4)n2n1)C1CC1` (stereo partly drawn), the IC50 is 31 nM in [6]; 5760 nM in series [7]; > 100 µM against Cytochrome P450 2C8; 64.3 µM at Cytochrome P450 2C19; > 100 µM against Cytochrome P450 2D6; > 100 µM against Cytochrome P450 3A4. The Papp A→B at 2 h, 10 µM in series [8] amounted to 1.6 ×10⁻⁶ cm/s. In addition, the efflux ratio at 2 h, 10 µM in series [9] was found to be 19.5. Moreover, the free fraction (fraction unbound) at 4 h, 2 µM in [1] amounted to 0.205. For the same molecule, the microsomal CLint at 1 µM in [2] came to 15.7 µL/min/mg; in series [3], 11.3 µL/min/mg. Further, the CLH in series [4] was < 6.4 µL/min/mg.

Turning to `O=C(Nc1nc2cccc([C@H]3CC[C@@H](NC(=O)[C@@H]4CC4(F)F)CC3)n2n1)C1CC1`, the half-maximal inhibitory concentration (IC50) was 2 nM in series [6]; 957 nM in series [7]; > 100 µM on Cytochrome P450 2C8; 75 µM against Cytochrome P450 2C19; > 100 µM at Cytochrome P450 2D6; > 100 µM at Cytochrome P450 3A4. Besides, the apparent permeability from apical to basolateral (Papp A→B) at 2 h, 10 µM in series [8] was found to be 2.78 ×10⁻⁶ cm/s. Further, in series [9], the efflux ratio at 2 h, 10 µM was 10.5. In series [1], the fraction unbound at 4 h, 2 µM is 0.156. Besides, the microsomal CLint at 1 µM in series [2] is 16.9 µL/min/mg; in series [3], < 9.6 µL/min/mg. Besides, the CLH in [4] is < 6.4 µL/min/mg. For the same molecule, the clearance in series [5] came to 9.58 mL/min/kg.
